What is called IC50 is the concentration that inhibits the measured activity by half.

The first assay concerns the target T1, EHMT2 (Homo sapiens, UniProt Q96KQ7).
T1 construct: host or cells: MDA-MB-231
T1 sequence (Q96KQ7 1-1210): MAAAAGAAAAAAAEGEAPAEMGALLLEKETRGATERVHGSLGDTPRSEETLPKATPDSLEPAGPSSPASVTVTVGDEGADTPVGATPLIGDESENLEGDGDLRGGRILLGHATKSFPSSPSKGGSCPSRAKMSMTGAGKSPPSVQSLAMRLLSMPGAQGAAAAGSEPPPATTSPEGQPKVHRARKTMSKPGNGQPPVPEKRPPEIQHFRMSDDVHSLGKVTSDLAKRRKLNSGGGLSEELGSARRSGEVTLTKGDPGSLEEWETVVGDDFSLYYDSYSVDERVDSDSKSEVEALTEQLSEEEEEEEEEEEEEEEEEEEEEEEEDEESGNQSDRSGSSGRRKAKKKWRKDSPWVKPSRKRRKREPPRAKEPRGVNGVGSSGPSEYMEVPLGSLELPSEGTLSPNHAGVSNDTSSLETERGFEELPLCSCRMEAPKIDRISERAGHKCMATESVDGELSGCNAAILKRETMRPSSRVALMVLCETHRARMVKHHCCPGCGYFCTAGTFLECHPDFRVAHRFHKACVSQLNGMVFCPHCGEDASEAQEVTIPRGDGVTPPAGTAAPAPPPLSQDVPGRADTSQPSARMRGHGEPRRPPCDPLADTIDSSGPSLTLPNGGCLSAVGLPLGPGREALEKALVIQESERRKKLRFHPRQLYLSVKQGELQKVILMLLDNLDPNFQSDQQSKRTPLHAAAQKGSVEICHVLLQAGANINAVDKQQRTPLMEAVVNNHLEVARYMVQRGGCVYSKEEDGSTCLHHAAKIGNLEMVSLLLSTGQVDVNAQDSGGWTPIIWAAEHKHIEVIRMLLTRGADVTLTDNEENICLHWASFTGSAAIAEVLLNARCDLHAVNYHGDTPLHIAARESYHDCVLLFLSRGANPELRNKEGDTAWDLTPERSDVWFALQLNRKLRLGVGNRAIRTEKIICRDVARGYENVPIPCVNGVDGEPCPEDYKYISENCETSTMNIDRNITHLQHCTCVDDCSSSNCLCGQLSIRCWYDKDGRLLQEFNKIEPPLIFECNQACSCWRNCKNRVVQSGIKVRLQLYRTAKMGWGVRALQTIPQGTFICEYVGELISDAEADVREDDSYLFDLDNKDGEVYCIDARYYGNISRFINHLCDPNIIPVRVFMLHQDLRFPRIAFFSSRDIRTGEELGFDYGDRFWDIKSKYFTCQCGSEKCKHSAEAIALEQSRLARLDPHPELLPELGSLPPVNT
Briefly: MDA-MB-231 H3K9me2 in-cell Western assay (EHMT2 ICW). The conditions noted are these: Table III; MDA-MB-231 H3K9me2 in-cell Western; read-out: EHMT2 ICW (IC50 μM). The format is cell-based. Put shortly:
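Steps: compound added to plate, MDA-MB-231 cells plated in RPMI with 10% FBS, incubation for 48 h at 37 °C, fixation, overnight anti-H3K9me2 staining at 4 °C, and donkey anti-mouse 800CW with DRAQ5 counterstain. IC50 values come from percent inhibition fitted with a four-parameter model.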
For `COc1cnc(Nc2cc(C)nc3[nH]ccc23)cc1OCCCN1CCCC1` [Compound 336, N-(5-methoxy-4-(3-(pyrrolidin-1-yl)propoxy)pyridin-2-yl)-6-methyl-1H-pyrrolo[2,3-b]pyridin-4-amine], the IC50 fell in the range of 1 to 10 µM. For `COc1ccc(OCCCN2CCCC2)cc1Nc1nccc(NCC2CCOCC2)n1` [Compound 351], the IC50 was over 10 µM. On the same count and under the same terms, the result for `COc1ccc(Nc2nc(C)c(F)c(NC(C)C)n2)cc1OCCCN1CCCC1` [Compound 337] reads 1 to 10 µM; that for `COc1ccc(Nc2nccc(Nc3cccc(F)c3)n2)cc1OCCCN1CCCC1` [Compound 349], 1 to 10 µM; that for `CNc1cc(C)nc(Nc2cnc(OC)c(OCCCN3CCCC3)c2)n1` [Compound 332, N^2-(6-methoxy-5-(3-(pyrrolidin-1-yl)propoxy)pyridin-3-yl)-N^4,6-dimethylpyrimidine-2,4-diamine], 0.1 to 1 µM. For `COc1ccc(Nc2nccc(-n3nc(C)cc3C)n2)cc1OCCCN1CCCC1` [Compound 338], the IC50 is over 10 µM. For `CNc1cc(C)nc(Nc2ccc(OC)c(O[C@H]3C[C@H](CN(C)C)C3)c2)n1` [Compound 331, N^2-(3-((1r,3r)-3-((dimethylamino)methyl)cyclobutoxy)-4-methoxyphenyl)-N^4,6-dimethylpyrimidine-2,4-diamine], the IC50 is over 10 µM.

For `COc1ccc(Nc2cc3c(cn2)ncn3C)cc1OCCCN1CCCC1` [Compound 258, N-(4-methoxy-3-(3-(pyrrolidin-1-yl)propoxy)phenyl)-1-methyl-1H-imidazo[4,5-c]pyridin-6-amine], the IC50 was over 10 µM. For `COc1ccc(Nc2nccc(NCC3CCOCC3)n2)cc1OC1CCC2(CC1)CCN(C)C2` (stereo not drawn) [Compound 259, N^2-(4-methoxy-3-((2-methyl-2-azaspiro[4.5]decan-8-yl)oxy)phenyl)-N^4-((tetrahydro-2H-pyran-4-yl)methyl)pyrimidine-2,4-diamine], the IC50 is over 10 µM.

Staying with this assay, now noted: Table VI; read-out: EHMT2 ICW IC50.
Turning to `COc1cc2c(C3CCN(C(C)=O)CC3)cc(C)nc2cc1OCCCN1CCCC1` [Compound 834], the IC50 was in the range of 1 to 10 µM. The same measure, in the same setting: for `CNc1cc2nccn2c(Nc2cc(OCCCN3CCCC3)c(OC)cn2)n1` [Compound 611] the value was 1 to 10 µM. Still for that read-out and setting: for `COc1cc2c(C3CCOCC3)cc(=O)[nH]c2cc1OCCCN1CCCC1` [Compound 822] the value was over 10 µM. With `CNc1cc(C)nc(Nc2ccc(OC)c(C#CC3CCCN3C)c2)n1` (stereo not drawn) [Compound 848], the IC50 was 0.1 to 1 µM. In the case of `COc1cc2c(C)nc(N3CCCCC3)nc2cc1OCCCN1CCCC1` [Compound 811], the IC50 was over 10 µM. Same read-out and setting: the result for `COc1ccc(Nc2nn(C)c3cnccc23)cc1OCCCN1CCCC1` [Compound 794] reads over 10 µM; that for `CNc1cc(C2CCOCC2)c2cc(OC)c(OC[C@@H]3CCNC3)cc2n1` [Compound 802], 1 to 10 µM; that for `CNc1cc(C2CCN(CC(F)(F)F)CC2)c2cc(OC)c(OCCCN3CCCC3)cc2n1` [Compound 833], 0.1 to 1 µM. With `COc1cc2c(C3CCN(CC(F)(F)F)CC3)nc(C)nc2cc1OCCCN1CCCC1` [Compound 841], the IC50 is over 10 µM. On the same count and under the same terms, for `CNc1cc(C)nc(Nc2ccc(OC)c(CN[C@@H]3CCNC3)c2)c1` [Compound 814] the value was over 10 µM. Same read-out and setting: for `CNc1cc(C)nc(Nc2ccc(OC)c(C#CC3CCCN3)c2)n1` (stereo not drawn) [Compound 846] the value was 0.1 to 1 µM.

On to `COc1cc2c(C3CCN(C)CC3)cc(N3CCCCC3)nc2cc1OCCCN1CCCC1` [Compound 812], for which the IC50 lay in the range of 0.1 to 1 µM.

Turning to `CNc1cc(C)nc(Nc2cc(OCCCN3CCCC3)c3nccn3c2)n1` [Compound 618], the IC50 was over 10 µM. Take `COc1cc2c(C3CCN(CC(F)(F)F)CC3)cc(C)nc2cc1OCCCN1CCCC1` [Compound 837]: the IC50 lay in the range of 1 to 10 µM. For `CCN1CC(COc2cc(Nc3nc(C)cc4[nH]ccc34)ncc2OC)C1` [Compound 613], the IC50 lay within 1 to 10 µM. For `CNc1cc(C)nc(Nc2ccc(OC)c(C#CC3CCNC3)c2)n1` (stereo not drawn) [Compound 845], the half-inhibitory concentration (IC50) fell in the range of 0.1 to 1 µM. Still for that read-out and setting: the result for `COc1cc2c(C3CCN(CCC(F)(F)F)CC3)cc(C)nc2cc1OCCCN1CCCC1` [Compound 838] reads 0.1 to 1 µM. The same measure, in the same setting: for `CCS(=O)(=O)N1CCC(c2cc(C)nc3cc(OCCCN4CCCC4)c(OC)cc23)CC1` [Compound 836] the value was 1 to 10 µM.
